Experimental findings from ChEMBL document CHEMBL4834391, “Role of Ascaridole and p-Cymene in the Sleep-Promoting Effects of Dysphania ambrosioides Essential Oil via the GABAergic System in a ddY Mouse Inhalation Model” (J Nat Prod, 2021) are described below.

Activity calls are given as the source filed them. The rule behind the calls is not given here.

Data set [1] relates to Mus musculus. Briefly: Sleep-promoting activity in ddY mouse assessed as decrease in pentobarbital-induced sleep ing duration at 3 mg/kg relative to control. It counts as functional. The arrangement: scale not given: the % may be the effect or the level left.
The species named for data set [2] is Mus musculus. Briefly: Myorelaxant effect in ddY mouse assessed as decrease in endurance latency time by rota-rod test. In kind it is functional, organism-based. On the technique in general: In the rotarod test animals must keep their balance on a rotating rod.
A short description of data set [3]: Sedative activity in ddY mouse assessed as decrease in spontaneous locomotor activity when administered via inhalation relative to control. The arrangement: scale not given: the % may be the effect or the level left. The conditions noted are these: in vivo, inhaled_or_intranasal.
Data set [4] is described as follows: Sedative activity in ddY mouse assessed as decrease in spontaneous locomotor activity at 0.00004 mg administered via inhalation relative to control. The conditions noted are these: in vivo, inhaled_or_intranasal, at 40 ng. Set-up: scale not given: the % may be the effect or the level left.
The nature of data set [5]: Toxicity in mouse assessed as lethal dose. Particulars: in vivo.
Data set [6] concerns Mus musculus. Briefly: Myorelaxant effect in ddY mouse assessed as decrease in endurance latency time at 0.000004 mg administered via inhalation by rota-rod test. In kind it is functional, organism-based. The conditions noted are these: dose 4 ng.
The nature of data set [7]: Sedative activity in ddY mouse assessed as decrease in spontaneous locomotor activity at 0.004 mg administered via inhalation relative to control. The conditions noted are these: in vivo, inhaled_or_intranasal. Set-up: scale not given: the % may be the effect or the level left.
Data set [8] in a line: Sedative activity in ddY mouse assessed as decrease in caffeine-induced spontaneous locomotor activity at 0.000004 mg administered via inhalation post caffeine stimulation (reference value: 68 %). Set-up: scale not given: the % may be the effect or the level left. Particulars: in vivo, inhaled_or_intranasal, at 4 ng.
Data set [9] is described as follows: Sedative activity in ddY mouse assessed as decrease in spontaneous locomotor activity at 0.0004 mg administered via inhalation relative to control. Set-up: scale not given: the % may be the effect or the level left. The conditions noted are these: in vivo, inhaled_or_intranasal.
A short description of data set [10]: Sedative activity in ddY mouse assessed as decrease in spontaneous locomotor activity at 0.4 mg administered via inhalation relative to control. The arrangement: scale not given: the % may be the effect or the level left. The conditions noted are these: in vivo, inhaled_or_intranasal.
Data set [11] is described as follows: Sedative activity in ddY mouse assessed as decrease in spontaneous locomotor activity at 0.04 mg administered via inhalation relative to control. The arrangement: scale not given: the % may be the effect or the level left. The conditions noted are these: in vivo, inhaled_or_intranasal.
The subject of data set [12] is Mus musculus. Briefly: Sleep-promoting activity in ddY mouse assessed as enhancement of pentobarbital-induced sleep resulting in prolonged sleeping time at 0.000004 mg administered via inhalation relative to control. It counts as functional. The conditions noted are these: dose 4 ng.
Data set [13] deals with Mus musculus. Briefly: Myorelaxant effect in ddY mouse assessed as decrease in endurance latency time at 0.004 mg administered via inhalation by rota-rod test. In kind it is functional, organism-based.
Data set [14] has as its system Mus musculus. Briefly: Sleep-promoting activity in ddY mouse assessed as enhancement of pentobarbital-induced sleep resulting in prolonged sleeping time at 0.004 mg administered via inhalation relative to control. It counts as functional.
Data set [15] can be described thus: Sedative activity in ddY mouse assessed as decrease in caffeine-induced spontaneous locomotor activity at 0.004 mg administered via inhalation post caffeine stimulation (reference value: 68 %). The arrangement: scale not given: the % may be the effect or the level left. Particulars: in vivo, inhaled_or_intranasal.

By LD50 is commonly meant the dose at which mortality reaches 50%.

`CCOC(=O)c1ncn2c1CN(C)C(=O)c1cc(F)ccc1-2` [FLUMAZENIL]: in the data set with Mus musculus [1], the Activity turned out to be 31%.
As to `CN1C(=O)CN=C(c2ccccc2)c2cc(Cl)ccc21`, the outcome in the data set listed under Mus musculus [2] was Active.
Consider `Cc1ccc(C(C)C)cc1` [P-CYMENE], for which the Activity came out at 63% in [3]; 69% in [4]; 61% in [7]; 50% in [8]; 57% in data set [9]; 68% in [10]. Further, the Activity in data set [11] is reported as 67%; in the data set on Mus musculus [12] it was 77%. In addition, the 50% lethal dose (LD50) in [5] was 4750 mg/kg. Moreover, the outcome in the data set on Mus musculus [6] was inactive.
`CC(C)C12C=CC(C)(CC1)OO2` (configuration not stated) [ASCARIDOLE]: the Activity in [3] is listed as 56%; in [4], 64%; in the data set with Mus musculus [14], 42%; in [7], 67%; in [15], 47%; in data set [9], 52%. Moreover, the Activity in [10] stood at 56%; in data set [11], 64%. Besides, the LD50 in [5] was found to be 400 mg/kg. Moreover, in the data set on Mus musculus [13], the result was inactive.
